Data: patent US20120309087A1, “CANCER THERAPY” (University Court of The University of Dundee, priority 2006, published 2012)

Legend:
[1] = tested on: AKR1C and NQO1 protein in MCF7 cells; assay: AKR1C and NQO1 protein in MCF7 cells (Western blots); assay type: cell-based, human; conditions: 24 hrs; for sulforaphane-induced AKR1C protein: sulforaphane 5 μM + retinoid 0.5 μM
Experimental: Method: AREc32 cells were seeded out in 96 well plates and treated with DMSO (control), tBHQ (50 μM), tBHQ+BTB09463 (5 μM) or tBHQ+Retinoic acid (1 μM). After 24 hours incubation, cells were washed and lysed before measuring luciferase activity. BTB09463 is 1-{4-[(3,4-dichlorobenzyl)oxy]phenyl}ethan-1-one. […] Method: AREc32 cells were seeded out in 96 well plates and dosed with BTB09463 (2.5, 5 or 10 μM) for 0, 24 or 48 hrs before treatment with tBHQ (50 μM). 24 hours after the addition of tBHQ, cells were washed and lysed before measuring luciferase activity. […] Method: ARE c32 cells were seeded out in 96 well plates and treated with DMSO (control), tBHQ (50 μM), tBHQ+retinoid (0.25, 0.5 and 1 μM). After 24 hours incubation, cells were washed and lysed before measuring luciferase activity. […] See FIG. 16 Method: A. Caco-2 cells were treated with the known ARE-gene inducer sulforaphane (5 μM), either alone or concomitantly with BTB09463 (5 μM) or Retinoic acid (1 μM). After 24 hrs, cell lysates were prepared and Western blotting performed to measure the levels of AKR1C protein. B. MCF7 cells were treated with sulforaphane (5 μM), either alone or concomitantly with BTB09463 (5 μM). After 24 hrs, cell lysates were prepared and Western blots performed to detect the levels of AKR1C and NQO1; GAPDH was used as a loading control in MCF7 cells. […] Method: Caco-2 cells were treated with DMSO (control), BTB09463 (5 μM), sulforaphane (5 μM) or a combination of sulforaphane plus BTB09463. After 24 hrs treatment, cells were harvested and RNA isolated. cDNA for each sample was generated by reverse transcription and subsequently used in real time PCR analysis of gene transcription (TaqMan analysis) for the ARE-driven genes AKR1C1 and NQO1. Data was normalised to the internal control 18S RNA and the relative levels of AKR1C1 and NQO1 calculated using the comparative CT method. […] Method: MCF7 cells were treated with the known ARE-gene inducer sulforaphane (5 μM), either alone or with various retinoids (0.5 μM). After 24 hrs, cell lysates were prepared and Western blots were performed to detect the levels of AKR1C protein present. […] See FIG. 19 Method: ARE reporter cell line AREc23 was seeded into 96 well plates and treated with a previously determined non-toxic concentration of cytotoxic drug. After 24 hours incubation, cells were washed and lysed before measuring luciferase activity. […] See FIG. 20a Method: ARE reporter cell line AREc23 was seeded into 96 well plates and treated with DMSO (control), Carmustine (100 μM), Carmustine+BTB09463 (5 μM) or Carmustine+Retinoic acid (5 μM) After 24 hours incubation, cells were washed and lysed before measuring luciferase activity. […] After 24 hours incubation, cells were washed and lysed before measuring luciferase activity. B. Modified repeat of experiment A, with cells being pretreated with L-buthionine-(SR)-sulfoximine (BSO), an inhibitor of enzymes in the glutathione synthesis pathway. After 24 hours incubation, cells were washed and lysed before measuring luciferase activity. […] Method: Caco-2 cells were treated for 24 hrs with DMSO (control), Carmustine (100 μM), Carmustine+BTB09463 (5 μM). After 24 hrs, cell lysates were prepared and Western blots to detect the levels of AKR1C. […] Method: MCF7 cells were treated for 24 hrs with DMSO (control; Lane 1), Sulforaphane (5 μM) (Lane 2), Carmustine (100 μM) (Lane 3), Carmustine+BTB09463 (5 μM) (Lane 5). (Lane 4 represents experimental conditions irrelevant to the application). After 24 hrs, cell lysates were prepared and Western blots to detect the levels of Nrf2, NQO1 and AKR1C proteins.

MCF7 cells = assay: cells; assay type: cell-based
[2] = tested on: AKR1C1, NQO1, GCLC, GCLM mRNA in A549 cells; assay: Constitutive mRNA of ARE-driven genes in A549 cells (Taqman); assay type: cell-based, human; conditions: BTB09463 1, 5, 20, 40 μmol/l or retinoids 0.050, 0.20, 0.50, 2.0 μmol/l, 24 hrs
[3] = tested on: ARE-driven luciferase activity in AREc32 cells; assay: Induction of ARE-driven luciferase activity in stable AREc32 reporter cells; assay type: cell-based, human; conditions: for induction of ARE-driven luciferase activity: previously determined non-toxic concentration, 24 hours; for effect on luciferase activity in AREc32 cells (in words): sub-lethal doses, no BSO; for Type of modulation: grouping of drugs by effect on luciferase activity; for CD, concentration of inducting agent that doubled luciferase reporter activity: DMSO set at 1; for effect of BSO pre-treatment on luciferase activity: 50 μM BSO 24 h before drug, data not shown
A549 cells = assay: Cytotoxicity in A549 cells (ATP levels, 72 h); assay type: cell-based, human; conditions: Homo sapiens, single agent
[4] = tested on: AKR1C protein in Caco-2 cells; assay: AKR1C protein in Caco-2 cells (Western blotting); assay type: cell-based, human; conditions: Carmustine 100 μM, 24 hrs
Experimental: (§1) Method: AREc32 cells were seeded out in 96 well plates and treated with DMSO (control), tBHQ (50 μM), tBHQ+BTB09463 (5 μM) or tBHQ+Retinoic acid (1 μM). After 24 hours incubation, cells were washed and lysed before measuring luciferase activity. BTB09463 is 1-{4-[(3,4-dichlorobenzyl)oxy]phenyl}ethan-1-one. […] Method: AREc32 cells were seeded out in 96 well plates and dosed with BTB09463 (2.5, 5 or 10 μM) for 0, 24 or 48 hrs before treatment with tBHQ (50 μM). 24 hours after the addition of tBHQ, cells were washed and lysed before measuring luciferase activity. […] Method: ARE c32 cells were seeded out in 96 well plates and treated with DMSO (control), tBHQ (50 μM), tBHQ+retinoid (0.25, 0.5 and 1 μM). After 24 hours incubation, cells were washed and lysed before measuring luciferase activity. […] See FIG. 16 Method: A. Caco-2 cells were treated with the known ARE-gene inducer sulforaphane (5 μM), either alone or concomitantly with BTB09463 (5 μM) or Retinoic acid (1 μM). After 24 hrs, cell lysates were prepared and Western blotting performed to measure the levels of AKR1C protein. B. MCF7 cells were treated with sulforaphane (5 μM), either alone or concomitantly with BTB09463 (5 μM). After 24 hrs, cell lysates were prepared and Western blots performed to detect the levels of AKR1C and NQO1; GAPDH was used as a loading control in MCF7 cells. […] Method: Caco-2 cells were treated with DMSO (control), BTB09463 (5 μM), sulforaphane (5 μM) or a combination of sulforaphane plus BTB09463. After 24 hrs treatment, cells were harvested and RNA isolated. cDNA for each sample was generated by reverse transcription and subsequently used in real time PCR analysis of gene transcription (TaqMan analysis) for the ARE-driven genes AKR1C1 and NQO1. Data was normalised to the internal control 18S RNA and the relative levels of AKR1C1 and NQO1 calculated using the comparative CT method. […] Method: MCF7 cells were treated with the known ARE-gene inducer sulforaphane (5 μM), either alone or with various retinoids (0.5 μM). After 24 hrs, cell lysates were prepared and Western blots were performed to detect the levels of AKR1C protein present. […] See FIG. 19 Method: ARE reporter cell line AREc23 was seeded into 96 well plates and treated with a previously determined non-toxic concentration of cytotoxic drug. After 24 hours incubation, cells were washed and lysed before measuring luciferase activity. […] See FIG. 20a Method: ARE reporter cell line AREc23 was seeded into 96 well plates and treated with DMSO (control), Carmustine (100 μM), Carmustine+BTB09463 (5 μM) or Carmustine+Retinoic acid (5 μM) After 24 hours incubation, cells were washed and lysed before measuring luciferase activity. […] After 24 hours incubation, cells were washed and lysed before measuring luciferase activity. […]

[5] = tested on: AKR1C mRNA in AREc32 cells; assay: AKR1C mRNA in AREc32 cells (TaqMan); conditions: 24 h; for mRNA level of AKR1C (in words): without pre-treatment with BSO
[6] = tested on: AKR1C1 and NQO1 mRNA in Caco-2 cells; assay: AKR1C1 and NQO1 mRNA in Caco-2 cells (TaqMan); assay type: cell-based, human; conditions: sulforaphane 5 μM, 24 hrs
Experimental: as §1

CC(=O)OC/C=C(C)/C=C/C=C(C)/C=C/C1=C(C)CCCC1(C)C [Retinyl acetate]
sulforaphane-induced AKR1C protein [1]: reduced the expression of sulforaphane-induced AKR1C
synergy with Bleomycin (cell killing, isobologram) (MCF7 cells; 72 hrs): very potent, synergistic increase in cell killing
constitutive expression of AKR1C1 mRNA [2]: inhibited the constitutive expression of AKR1C1 in a concentration-dependent manner

CS(=O)(=O)OCCCCOS(C)(=O)=O [busulphan]
induction of ARE-driven luciferase activity [3]: 3.1 fold

COc1cccc2c1C(=O)c1c(O)c3c(c(O)c1C2=O)C[C@@](O)(C(=O)CO)C[C@@H]3O[C@H]1C[C@H](N)[C@@H](O)[C@H](C)O1 [Epirubicin]
effect on luciferase activity in AREc32 cells (in words) ([3]; 24 h): no effect
Type of modulation ([3]; AREc32, 24 h): Inactive

O=NN(CCCl)C(=O)NCCCl [BCNU, carmustine]
effect on luciferase activity in AREc32 cells (in words) ([3]; 24 h): stronger inducing agent
Type of modulation ([3]; AREc32, 24 h): Weak inducers
induction of ARE-driven luciferase activity [3]: 4.5 fold
NQO1 and AKR1C protein expression ([1]; Carmustine 100 μM): caused over-expression of NQO1 and AKR1C protein
IC50 (MCF7 cells; Homo sapiens, single agent): 291 µM
IC50 (A549 cells): > 1500 µM
AKR1C protein expression [4]: massive induction
induction of AKR1C mRNA ([5]; without BSO, 100 μM BCNU): 3 fold

OCc1c[nH]c2ccccc12 [I3C]
CD, concentration of inducting agent that doubled luciferase reporter activity ([3]; AREc32, 24 h): 20 µM

COc1cc([C@@H]2c3cc4c(cc3[C@@H](O[C@@H]3O[C@@H]5CO[C@@H](C)O[C@H]5[C@H](O)[C@H]3O)[C@H]3COC(=O)[C@H]23)OCO4)cc(OC)c1O [Etopside, etoposide]
effect of BSO pre-treatment on luciferase activity [3]: did not change luciferase activity significantly
effect on luciferase activity in AREc32 cells (in words) ([3]; 24 h): modestly increased
Fold increase (luciferase activity relative to control value) ([3]; AREc32, 24 h, concentration of each drug given in column Conc., mean ± S.D.): 1.3 ± 0.07
Type of modulation ([3]; AREc32, 24 h): Weak inducers

C=CC=O [Acrolein]
increase in luciferase activity ([3]; 10 μM acrolein): 27 fold
CD, concentration of inducting agent that doubled luciferase reporter activity ([3]; AREc32, 24 h): 2 µM
Type of modulation ([3]; AREc32, 24 h): Strong inducer

C[S+]([O-])CCCCN=C=S (stereo not drawn) [SUL, sulforaphane]
CD, concentration of inducting agent that doubled luciferase reporter activity ([3]; AREc32, 24 h): 2 µM
induction of AKR1C1 mRNA [6]: 12 fold
induction of NQO1 mRNA [6]: less markedly induced

O=C(O)CCCc1ccc(N(CCCl)CCCl)cc1 [Chlorambucil]
effect on luciferase activity in AREc32 cells (in words) ([3]; 24 h): weak inducers
Type of modulation ([3]; AREc32, 24 h): Weak inducers
mRNA level of AKR1C (in words) [5]: only slightly increased

CCOc1ccc2ccc(=O)oc2c1 [7-ethoxycoumarin]
CD, concentration of inducting agent that doubled luciferase reporter activity ([3]; AREc32, 24 h): 100 µM

N.N.[Cl][Pt][Cl] [Cisplatin]
induction of luciferase activity after BSO pre-treatment ([3]; 50 μM BSO 24 h, then 10 μM cisplatin, 20 μM melphalan, 100 μM BCNU or 100 μM chlorambucil 24 h): 3 fold
Type of modulation ([3]; AREc32, 24 h): Weak inducers
mRNA level of AKR1C (in words) [5]: only slightly increased

O=C1c2c(O)ccc(O)c2C(=O)c2c(NCCNCCO)ccc(NCCNCCO)c21 [Mitozantrone]
effect of BSO pre-treatment on luciferase activity [3]: did not change luciferase activity significantly
Type of modulation ([3]; AREc32, 24 h): Weak inducers

CCC(=O)OC/C=C(C)/C=C/C=C(C)/C=C/C1=C(C)CCCC1(C)C [vitamin A propionate]
sulforaphane-induced AKR1C protein [1]: reduced the expression of sulforaphane-induced AKR1C

OO [H2O2]
CD, concentration of inducting agent that doubled luciferase reporter activity ([3]; AREc32, 24 h): 300 µM
